Measurements: US20140135310A1, “SULPHONAMIDE DERIVATIVES OF ALICYCLIC AMINES FOR THE TREATMENT OF CENTRAL NERVOUS SYSTEM DISEASES” (Adamed Sp. z o.o., priority 2011, published 2014)

What was measured:
[1] = biological target: T1, serotonin transporter (SERT) (Homo sapiens, UniProt P31645); test: Radioligand binding assay, serotonin transporter (SERT); conditions: binding assay, test compound 1×10^−6 M
T1 construct: expressed in transfected cells; host or cells: CHO cells
Summary of the method: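 Values are derived from competition curves fitted by the Hill equation to give IC50, then converted to Ki by Cheng-Prusoff with radioligand Kd from Scatchard analysis. Specific binding equals total minus non-specific (excess cold ligand), counted by scintillation, and is also expressed as percent inhibition of control.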

[2] = biological target: T2, H1 histaminergic receptors (Homo sapiens, UniProt P35367); test: Radioligand binding assay, histaminergic H1 receptors; conditions: human recombinant (HEK-293 cells), [3H]pyrilamine 1 nM
T2 construct: expressed in transfected cells; host or cells: HEK-293 cells
Source text: (§1) The specific ligand binding to the receptors is defined as the difference between the total binding and the non-specific binding determined in the presence of the excess of unlabelled ligand.
(§2) The results are expressed as a percent of control specific binding ((measured specific binding/control specific binding)×100) and as a percent inhibition of control specific binding (100−((measured specific binding/control specific binding)×100)) obtained in the presence of the test compounds. The specific ligand binding to the receptors is defined as the difference between the total binding and the nonspecific binding determined in the presence of an excess of unlabelled ligand. Scintillation counting was the method of detection of ligand binding. The IC50 values (concentration causing a half-maximal inhibition of control specific binding) were determined by non-linear regression analysis of the competition curves generated with mean replicate values using Hill equation curve fitting (Y=D+[(A−D)/(1+(C/C50)nH)], where Y=specific binding, D=minimum specific binding, A=maximum specific binding, C=compound concentration, C50=IC50, and nH=slope factor). This analysis was performed using a software developed at Cerep (Hill software) and validated by comparison with data generated by the commercial software SigmaPlot® 4.0 for Windows® (© 1997 by SPSS Inc.). The inhibition constants (Ki) were calculated using the Cheng Prusoff equation (Ki=IC50/(1+(L/KD)), where L=concentration of radioligand in the assay, and KD=affinity of the radioligand for the receptor). A scatchard plot was used to determine the Kd.
Experimental conditions for tests are given in Table 14, and results of tests for representative compounds are presented in Table 15.

5-HT2A receptor = biological target: T3, 5-HT2A receptor (Homo sapiens, UniProt P28223); test: Radioligand binding assay, serotoninergic 5-HT2A receptors; conditions: for Ki: read-out: Inhibition constants Ki, 5-HT2A
T3 construct: purchased PerkinElmer
Summary of the method: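 Competition curves from scintillation-counted specific binding (total minus binding with excess unlabelled ligand) were Hill-fitted to give IC50, converted to Ki via Cheng-Prusoff using Scatchard-derived Kd.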

α2C adrenergic receptors = biological target: T4, α2C adrenergic receptors (Homo sapiens, UniProt P18825); test: Radioligand binding assay, adrenergic α2C receptors; conditions: test compound 1×10^−6 M
T4 construct: expressed in transfected cells; host or cells: CHO cells
T4 sequence (P18825 1-462): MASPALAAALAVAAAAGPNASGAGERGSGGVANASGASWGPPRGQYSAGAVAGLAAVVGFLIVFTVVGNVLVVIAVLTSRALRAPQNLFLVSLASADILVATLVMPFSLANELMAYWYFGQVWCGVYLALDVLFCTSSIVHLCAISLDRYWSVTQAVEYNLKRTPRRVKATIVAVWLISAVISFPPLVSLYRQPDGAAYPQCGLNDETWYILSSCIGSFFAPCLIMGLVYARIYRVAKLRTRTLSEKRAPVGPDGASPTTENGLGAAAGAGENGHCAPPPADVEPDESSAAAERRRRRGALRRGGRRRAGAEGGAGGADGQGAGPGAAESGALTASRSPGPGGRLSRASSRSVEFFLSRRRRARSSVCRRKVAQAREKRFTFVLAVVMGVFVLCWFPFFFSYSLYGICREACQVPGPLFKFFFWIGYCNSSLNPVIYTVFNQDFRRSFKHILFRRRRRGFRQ
Source text: as §1, §2
Experimental conditions for tests are given in Table 7, and results of tests for representative compounds are given in Tables 8 (α1 receptors) and in Tables 9 (α2C receptors).

5-HT7 receptor = biological target: T5, 5-HT7 receptor (Homo sapiens, UniProt P34969); test: Radioligand binding assay, serotoninergic 5-HT7 receptors; conditions: binding assay result in %, Table 5a;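 further: test compound at 1 µM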
T5 construct: purchased PerkinElmer
Summary of the method: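 Ki values used the Cheng–Prusoff equation, with KD from Scatchard analysis, applied to IC50 from Hill fits of human 5-HT7 radioligand competition curves. Bound radioligand was counted by scintillation, and excess unlabelled ligand set the non-specific binding.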

receptors D4.4 = biological target: T6, receptors D4.4 (Homo sapiens, UniProt P21917); test: Radioligand binding assay, dopaminergic D4 (D4.4) receptors; conditions: test compound 1×10^−6 M
T6 sequence (P21917 1-419): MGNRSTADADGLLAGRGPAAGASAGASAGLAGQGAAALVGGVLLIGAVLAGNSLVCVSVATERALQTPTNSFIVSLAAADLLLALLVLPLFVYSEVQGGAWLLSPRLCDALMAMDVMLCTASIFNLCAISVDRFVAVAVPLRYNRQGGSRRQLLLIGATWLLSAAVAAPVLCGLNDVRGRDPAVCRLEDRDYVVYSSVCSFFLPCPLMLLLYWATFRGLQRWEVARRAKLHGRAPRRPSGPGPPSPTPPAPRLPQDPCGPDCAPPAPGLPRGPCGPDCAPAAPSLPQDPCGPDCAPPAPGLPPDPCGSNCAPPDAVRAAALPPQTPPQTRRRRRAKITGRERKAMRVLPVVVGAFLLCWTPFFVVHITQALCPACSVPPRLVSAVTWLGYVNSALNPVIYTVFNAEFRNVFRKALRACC
Source text: as §1, §2
Experimental conditions for tests are given in Table 1, the results of tests for representative compounds are given in Tables 2a and 2b (receptors D2 and D3) and in Table 3 (receptors D4).

[3] = biological target: dopaminergic receptors D2 (Homo sapiens, UniProt P14416); test: Radioligand binding assay, dopaminergic D2 receptors; conditions: for Ki: read-out: Inhibition constants Ki for D2 receptors, D2
Summary of the method: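 Scintillation read-out. Specific = total − nonspecific (excess cold ligand). Data as % of control specific binding / % inhibition; IC50 by Hill fit; Ki = IC50/(1+L/KD), KD from Scatchard plot.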

[4] = binding assay result in %, Table 5a
[5] = binding assay, test compound 1×10^−6 M

T3 sequence (P28223 whole entry): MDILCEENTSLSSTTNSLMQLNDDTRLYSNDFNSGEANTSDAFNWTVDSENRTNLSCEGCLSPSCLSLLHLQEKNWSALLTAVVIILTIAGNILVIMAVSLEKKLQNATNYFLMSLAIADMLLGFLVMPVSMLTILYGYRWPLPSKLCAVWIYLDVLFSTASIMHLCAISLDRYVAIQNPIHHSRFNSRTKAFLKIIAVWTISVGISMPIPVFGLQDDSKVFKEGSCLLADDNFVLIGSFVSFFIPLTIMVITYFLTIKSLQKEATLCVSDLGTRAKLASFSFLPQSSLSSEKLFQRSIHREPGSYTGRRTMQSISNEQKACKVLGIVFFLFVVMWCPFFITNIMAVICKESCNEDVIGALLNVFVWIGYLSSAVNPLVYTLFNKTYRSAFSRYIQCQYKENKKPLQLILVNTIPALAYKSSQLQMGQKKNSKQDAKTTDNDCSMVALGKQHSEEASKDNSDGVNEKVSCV
T2 sequence (P35367 whole entry): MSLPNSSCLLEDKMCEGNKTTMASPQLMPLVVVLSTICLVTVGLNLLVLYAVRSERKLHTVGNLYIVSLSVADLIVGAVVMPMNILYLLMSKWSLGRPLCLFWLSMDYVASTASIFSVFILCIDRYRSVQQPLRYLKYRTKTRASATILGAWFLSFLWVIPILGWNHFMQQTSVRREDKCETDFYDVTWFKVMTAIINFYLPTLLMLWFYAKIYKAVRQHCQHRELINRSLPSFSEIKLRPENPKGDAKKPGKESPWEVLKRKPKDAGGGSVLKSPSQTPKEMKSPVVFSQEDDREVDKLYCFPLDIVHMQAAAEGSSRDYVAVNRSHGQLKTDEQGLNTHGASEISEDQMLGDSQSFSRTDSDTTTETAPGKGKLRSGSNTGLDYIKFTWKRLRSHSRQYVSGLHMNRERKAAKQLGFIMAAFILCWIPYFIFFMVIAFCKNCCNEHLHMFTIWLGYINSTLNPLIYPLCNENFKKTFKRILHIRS
T1 sequence (P31645 whole entry): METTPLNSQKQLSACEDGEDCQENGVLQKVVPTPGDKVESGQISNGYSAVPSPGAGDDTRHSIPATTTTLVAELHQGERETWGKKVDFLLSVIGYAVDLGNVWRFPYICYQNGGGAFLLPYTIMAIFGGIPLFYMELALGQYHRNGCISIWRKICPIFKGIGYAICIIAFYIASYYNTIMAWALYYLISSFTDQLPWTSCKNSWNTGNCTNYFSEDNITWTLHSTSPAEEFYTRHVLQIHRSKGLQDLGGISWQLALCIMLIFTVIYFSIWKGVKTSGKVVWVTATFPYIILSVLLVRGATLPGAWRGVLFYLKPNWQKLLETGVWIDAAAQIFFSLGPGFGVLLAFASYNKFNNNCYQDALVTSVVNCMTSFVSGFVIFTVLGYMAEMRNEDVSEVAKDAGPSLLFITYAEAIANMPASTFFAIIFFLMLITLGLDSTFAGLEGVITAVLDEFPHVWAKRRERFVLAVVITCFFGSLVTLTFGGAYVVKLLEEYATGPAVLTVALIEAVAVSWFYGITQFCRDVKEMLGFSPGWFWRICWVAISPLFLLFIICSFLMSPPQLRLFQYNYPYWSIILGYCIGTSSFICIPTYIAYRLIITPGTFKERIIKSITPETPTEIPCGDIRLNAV
Chain of dopaminergic receptors D2 (P14416 whole entry): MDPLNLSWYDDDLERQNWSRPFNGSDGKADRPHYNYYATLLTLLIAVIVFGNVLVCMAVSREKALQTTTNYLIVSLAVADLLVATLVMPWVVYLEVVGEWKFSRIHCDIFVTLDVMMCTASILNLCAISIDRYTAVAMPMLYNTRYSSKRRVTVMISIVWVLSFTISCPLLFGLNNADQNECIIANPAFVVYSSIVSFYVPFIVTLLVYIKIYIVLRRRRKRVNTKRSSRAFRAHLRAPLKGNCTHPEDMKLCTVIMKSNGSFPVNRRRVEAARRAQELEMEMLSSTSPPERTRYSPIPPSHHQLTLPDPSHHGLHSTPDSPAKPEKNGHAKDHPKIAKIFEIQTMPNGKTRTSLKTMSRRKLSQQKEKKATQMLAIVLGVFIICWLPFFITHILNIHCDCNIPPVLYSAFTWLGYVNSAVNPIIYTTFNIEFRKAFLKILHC
T5 sequence (P34969 whole entry): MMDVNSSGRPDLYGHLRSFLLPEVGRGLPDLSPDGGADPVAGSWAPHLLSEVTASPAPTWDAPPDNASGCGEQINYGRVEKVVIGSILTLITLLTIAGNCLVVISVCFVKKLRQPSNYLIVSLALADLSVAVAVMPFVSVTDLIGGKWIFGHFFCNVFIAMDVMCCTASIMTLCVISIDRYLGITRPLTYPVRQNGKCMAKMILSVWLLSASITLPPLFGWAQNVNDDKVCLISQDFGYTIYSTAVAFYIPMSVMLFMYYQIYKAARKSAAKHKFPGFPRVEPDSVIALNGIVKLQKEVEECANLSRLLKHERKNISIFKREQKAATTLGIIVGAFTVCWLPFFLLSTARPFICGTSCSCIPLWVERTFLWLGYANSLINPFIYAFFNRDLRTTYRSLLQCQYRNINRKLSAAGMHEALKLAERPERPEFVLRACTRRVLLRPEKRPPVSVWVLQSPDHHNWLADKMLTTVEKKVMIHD

Row | Structure (SMILES) | inhibition at 1 µM [1] | inhibition at 1 µM [2] | inhibition at 1 µM (5-HT2A receptor; [4]) | Ki (5-HT2A receptor) | inhibition at 1 µM (α2C adrenergic receptors) | inhibition at 1 µM (5-HT7 receptor) | inhibition at 1 µM (receptors D4.4) | inhibition at 1 µM [3, 5] | Ki [3] | SERT [%] [1] | 5-HT2A [%] (5-HT2A receptor; [4]) | 5-HT7 [%] (5-HT7 receptor) | D2 [%] [3, 5]
1 | O=S(=O)(N[C@@H]1CCN(CCCc2noc3cc(F)ccc23)C1)c1cc2ccccc2s1 [Compound 196, N-[(3R)-1-[3-(6-Fluoro-1,2-benzoxazol-3-yl)propyl]pyrrolidin-3-yl]benzo-thiophene-2-sulphonamide] | 42% | 84% | 100% | 0.4 nM | 89% | 101% | 78% | 100% | 0.8 nM |  |  |  | 
2 | O=S(=O)(NCC1CCN(CCOc2cccc3c2OCCO3)C1)c1ccc2c(c1)CCO2 (centres unmarked) [Compound 306, N-[[1-[2-(2,3-Dihydro-1,4-benzodioxin-5-yloxy)ethyl]pyrrolidin-3-yl]-methyl]-2,3-dihydrobenzofuran-5-sulphonamide] | 90% | 57% | 81% |  | 98% | 94% | 33% | 51% |  |  |  |  | 
3 | O=S(=O)(N[C@@H]1CCN(CCCc2noc3cc(F)ccc23)C1)c1ccc2cc(Cl)ccc2c1 [Compound 200, 6-Chloro-N-[(3R)-1-[3-(6-fluoro-1,2-benzoxazol-3-yl)propyl]pyrrolidin-3-yl]naphthalene-2-sulphonamide] | 74% |  | 99% | 2.3 nM | 96% | 93% | 49% | 100% | 0.1 nM |  |  |  | 
4 | O=S(=O)(NCC1CCN(CCOc2cccc3c2OCCO3)C1)c1ccc(C(F)(F)F)cc1 (centres unmarked) [Compound 293, N-[[1-[2-(2,3-Dihydro-1,4-benzodioxin-5-yloxy)ethyl]pyrrolidin-3-yl]methyl]-4-(trifluoromethyl)benzenesulphonamide] | 82% | 38% | 86% |  | 95% | 90% | 35% | 66% |  |  |  |  | 
5 | O=S(=O)(N[C@H]1CCN(CCCc2noc3cc(F)ccc23)C1)c1cc2ccccc2s1 [Compound 197, N-[(3S)-1-[3-(6-Fluoro-1,2-benzoxazol-3-yl)propyl]pyrrolidin-3-yl]benzo-thiophene-2-sulphonamide] | 58% | 76% | 99% | 0.7 nM | 90% | 101% | 81% | 101% | 5.8 nM |  |  |  | 
6 | O=S(=O)(NCC1CCN(CCOc2cccc3c2OCCO3)C1)c1ccc(Br)cc1 (centres unmarked) [Compound 305, 4-Bromo-N-[[1-[2-(2,3-dihydro-1,4-benzodioxin-5-yloxy)ethyl]pyrrolidin-3-yl]methyl]benzenesulphonamide] | 94% | 54% | 93% |  | 96% | 96% | 52% | 57% |  |  |  |  | 
7 | Cc1c(S(=O)(=O)N[C@H]2CCN(CCCc3noc4cc(F)ccc34)C2)sc2ccc(F)cc12 [Compound 203, 5-Fluoro-N-[(3S)-1-[3-(6-fluoro-1,2-benzoxazol-3-yl)propyl]pyrrolidin-3-yl]-3-methyl-benzothiophene-2-sulphonamide] | 73% | 67% | 99% | 0.7 nM | 93% | 99% | 78% | 101% | 0.9 nM |  |  |  | 
8 | O=S(=O)(NCC1CN(CCCc2noc3cc(F)ccc23)C1)c1cc2ccccc2s1 [Compound 127, N-[[1-[3-(6-Fluoro-1,2-benzoxazol-3-yl)propyl]azetidin-3-yl]methyl]benzo-thiophene-2-sulphonamide] |  | 54% |  | 4.2 nM | 93% |  | 55% |  | 22 nM | 49% | 99% | 96% | 95%
9 | O=S(=O)(NCC1CCN(CCOc2cccc3c2OCCO3)C1)c1ccc(F)c(Cl)c1 (centres unmarked) [Compound 317, 3-Chloro-N-[[1-[2-(2,3-dihydro-1,4-benzodioxin-5-yloxy)ethyl]pyrrolidin-3-yl]methyl]-4-fluorobenzenesulphonamide] | 63% | 47% | 72% |  | 95% | 95% | 59% | 53% |  |  |  |  | 
10 | O=S(=O)(N[C@@H]1CCN(CCCc2noc3cc(F)ccc23)C1)c1ccc2ccccc2c1 [Compound 206, N-[(3R)-1-[3-(6-Fluoro-1,2-benzoxazol-3-yl)propyl]pyrrolidin-3-yl]naphthalene-2-sulphonamide] | 62% |  | 100% | 0.7 nM | 93% | 100% | 87% | 101% | 0.3 nM |  |  |  | 
11 | Cc1ccc2sc(S(=O)(=O)N[C@@H]3CCN(CCCc4noc5cc(F)ccc45)C3)cc2c1 [Compound 228, N-[(3R)-1-[3-(6-Fluoro-1,2-benzoxazol-3-yl)propyl]pyrrolidin-3-yl]-5-methyl-benzothiophene-2-sulphonamide] | 61% |  |  | 1 nM | 95% | 92% | 68% | 100% | 0.7 nM |  |  |  | 
12 | Cc1c(S(=O)(=O)N[C@@H]2CCN(CCCc3noc4cc(F)ccc34)C2)sc2ccc(F)cc12 [Compound 202, 5-Fluoro-N-[(3R)-1-[3-(6-fluoro-1,2-benzoxazol-3-yl)propyl]pyrrolidin-3-yl]-3-methyl-benzothiophene-2-sulphonamide] | 58% |  | 99% | 1.4 nM | 95% | 98% | 76% | 101% | 1.2 nM |  |  |  | 
